Assay results taken from patent US20230391752A1, “PYRROLIDINE-3-CARBOXAMIDE DERIVATIVES AND RELATED USES” (Chulalongkorn University, priority 2020, published 2023).

Columns and labels:
[1] = Cytotoxicity (MTT) in HepG2.2.15 cells; assay type: cell-based; conditions: human, 6 days treatment, read-out: HepG2.1.15 cytotoxicity (CC50)
Procedure: HepG2.2.15 cells were seeded onto 96-well culture plate and allowed to adhere for 24 hours. The cells were treated with various concentrations of the compounds for 6 days. After treatment, the culture media were discarded and further incubated with serum-free media containing […] of 3-(4,5-dimethylthiazol-2-yl)-2,5-diphenyl tetrazolium bromide (MTT) for 2 hour. The resulting formazan crystals were completely dissolved in dimethyl sulfoxide (DMSO), and then measured absorbance at 570 nm using microplate reader. The concentrations of compounds producing 50% cell death (CC50) were determined from a fitting of concentration-response curve (% cell viability versus concentration) to a four-parameter equation.

HBV [2] = experiment: In vitro anti-HBV activity in HepG2.2.15 cell line (intracellular HBV DNA by qPCR at 1 μM); assay type: cell-based; conditions: Hepatitis B virus, 144 h; HepG2.2.15 cells, 1 μM compound, 6 days, intracellular HBV DNA as percentage compared to vehicle control (0.5% DMSO)
Procedure, shortened: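 HepG2.2.15 cells given compound at 1 μM (0.5% DMSO final) for 3 days, then fresh compound-containing medium for 3 more days. After 6 days intracellular HBV DNA measured by qPCR. Expressed as % of 0.5% DMSO vehicle control and binned into letter ranges.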

HBV core protein (Cp149) = biological target: T1, HBV core protein (Cp149) (Hepatitis B virus genotype D subtype ayw, UniProt P03146); experiment: HBV capsid assembly by size exclusion chromatography (SEC); assay type: biochemical; conditions: 50 μM compound, 15 μM Cp149, 16 hours at 21° C.
T1 construct: HBV core C-terminally truncated protein (HBV Cp149); made in house

HBV [3] = experiment: Effect on intrahepatic HBV DNA levels in HepG2.2.15 cells (EC50); assay type: cell-based; conditions: Hepatitis B virus, 144 h, 6 days, intrahepatic HBV DNA by qPCR, read-out: Anti-HBV DNA (EC50)
Procedure: HepG2.2.15 cells were treated with compounds, at various concentrations in 10% FCS containing medium, at 37° C. for three days. After that the medium was removed and fresh medium containing the compound was added to the cells for another 3 days. After 6 days of treatment, intrahepatic HBV DNA from cell lysates were isolated. Then qPCR reaction of DNA was performed to measure total HBV DNA levels using specific primer set. The fifty-percent effective concentrations (EC50) for HBV DNA inhibition, relative to no drug controls, was determined using nonlinear fitting curve model. EC50 ranges for HBV DNA inhibition were as follows: A>0.3 μM, B=0.05-0.3 μM, C<0.05 μM (Table B).

T1 sequence (P03146 1-149): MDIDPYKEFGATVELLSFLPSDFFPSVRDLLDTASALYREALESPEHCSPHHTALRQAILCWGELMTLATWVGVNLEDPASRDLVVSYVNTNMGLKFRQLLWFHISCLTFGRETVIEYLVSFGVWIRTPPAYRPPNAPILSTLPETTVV

SMILES	CC50 at 6 days [1] [nM]	activity at 1 µM (HBV [2]) [%]	Size of induced capsids based on SEC retention times (HBV core protein (Cp149))	EC50 (HBV [3]) [nM]
Cc1ccc(C(=O)N2CC[C@H](C(=O)Nc3cc(F)c(F)c(Cl)c3)[C@@H]2C)[nH]1 [Example 20, (2S,3S)—N-(3-chloro-4,5-difluorophenyl)-2-methyl-1-(5-methyl-1H-pyrrole-2-carbonyl) pyrrolidine-3-carboxamide]	10000 to 25000	< 45	induced capsids similar in size to NVR 3-778	> 300
C[C@H]1[C@@H](C(=O)Nc2cc(F)c(F)c(F)c2)CCN1C(=O)c1ccc(Cl)[nH]1 [Example 60, (2S,3S)-1-(5-chloro-1H-pyrrole-2-carbonyl)-2-methyl-N-(3,4,5-trifluorophenyl)pyrrolidine-3-carboxamide]	> 25000	< 45	induced capsids similar in size to NVR 3-778	50 to 300
Cc1cc(NC(=O)[C@H]2CCN(C(=O)c3ccc(-c4c(C)n[nH]c4C)[nH]3)C2)ccc1F [Example 101, (S)-1-(5-(3,5-dimethyl-1H-pyrazol-4-yl)-1H-pyrrole-2-carbonyl)-N-(4-fluoro-3-methylphenyl)pyrrolidine-3-carboxamide]	> 25000	< 45	induced capsids similar in size to NVR 3-778	50 to 300
Cc1cc(NC(=O)[C@H]2CCN(C(=O)c3ccc(-c4ccnnc4)[nH]3)[C@H]2C)ccc1F [Example 102, (2S,3S)—N-(4-fluoro-3-methylphenyl)-2-methyl-1-(5-(pyridazin-4-yl)-1H-pyrrole-2-carbonyl) pyrrolidine-3-carboxamide]	> 25000	< 45	induced capsids similar in size to NVR 3-778	< 50
Cc1cc(NC(=O)[C@H]2CCN(C(=O)c3ccc(-c4c(C)n[nH]c4C)[nH]3)[C@H]2C)ccc1F [Example 103, (2S,3S)-1-(5-(3,5-dimethyl-1H-pyrazol-4-yl)-1H-pyrrole-2-carbonyl)-N-(4-fluoro-3-methylphenyl)-2-methylpyrrolidine-3-carboxamide]	10000 to 25000	< 45	induced capsids similar in size to NVR 3-778	< 50
C[C@H]1[C@@H](C(=O)Nc2ccc(F)c(F)c2)CCN1C(=O)c1ccc(-c2ccnnc2)[nH]1 [Example 110, (2S,3S)—N-(3,4-difluorophenyl)-2-methyl-1-(5-(pyridazin-4-yl)-1H-pyrrole-2-carbonyl) pyrrolidine-3-carboxamide]	> 25000	< 45	induced capsids similar in size to NVR 3-778	50 to 300
Cc1ncnc(C)c1-c1ccc(C(=O)N2CC[C@H](C(=O)Nc3cc(F)c(F)c(F)c3)[C@@H]2C)[nH]1 [Example 111, (2S,3S)-1-(5-(4,6-dimethylpyrimidin-5-yl)-1H-pyrrole-2-carbonyl)-2-methyl-N-(3,4,5-trifluorophenyl)pyrrolidine-3-carboxamide]	< 10000	< 45	induced capsids similar in size to NVR 3-778	< 50
Cc1[nH]nc(C(F)(F)F)c1-c1ccc(C(=O)N2CC[C@H](C(=O)Nc3ccc(F)c(C#N)c3)[C@@H]2C)[nH]1 [Example 113, (2S,3S)—N-(3-cyano-4-fluorophenyl)-2-methyl-1-(5-(5-methyl-3-(trifluoromethyl)-1H-pyrazol-4-yl)-1H-pyrrole-2-carbonyl)pyrrolidine-3-carboxamide]	10000 to 25000	< 45	induced capsids similar in size to NVR 3-778	< 50
Cc1cc(NC(=O)[C@H]2CCN(C(=O)c3ccc(-c4c(C(F)(F)F)n[nH]c4C)[nH]3)C2)ccc1F [Example 114]	10000 to 25000	< 45	induced capsids similar in size to NVR 3-778	< 50
Cc1cnnc(C)c1-c1ccc(C(=O)N2CC[C@H](C(=O)Nc3ccc(F)c(F)c3)C2)[nH]1 [Example 115, (S)—N-(3,4-difluorophenyl)-1-(5-(3,5-dimethylpyridazin-4-yl)-1H-pyrrole-2-carbonyl)pyrrolidine-3-carboxamide]	> 25000	< 45	induced capsids similar in size to NVR 3-778	50 to 300
Cc1cc(NC(=O)[C@H]2CCN(C(=O)c3ccc(-c4c(C)cc[nH]c4=O)[nH]3)[C@H]2C)ccc1F [Example 120, (2S,3S)—N-(4-fluoro-3-methylphenyl)-2-methyl-1-(5-(4-methyl-2-oxo-1,2-dihydropyridin-3-yl)-1H-pyrrole-2-carbonyl)pyrrolidine-3-carboxamide]	> 25000	< 45	induced capsids similar in size to NVR 3-778	50 to 300
Cc1cc2[nH]ncc2cc1-c1ccc(C(=O)N2CC[C@H](C(=O)Nc3cc(F)c(F)c(F)c3)C2)[nH]1 [Example 122, (S)-1-(5-(6-methyl-1H-indazol-5-yl)-1H-pyrrole-2-carbonyl)-N-(3,4,5-trifluorophenyl) pyrrolidine-3-carboxamide]	10000 to 25000	< 45	induced capsids similar in size to NVR 3-778	50 to 300
Cc1cc2[nH]ncc2cc1-c1ccc(C(=O)N2CC[C@H](C(=O)Nc3ccc(F)c(C#N)c3)C2)[nH]1 [Example 123, (S)—N-(3-cyano-4-fluorophenyl)-1-(5-(6-methyl-1H-indazol-5-yl)-1H-pyrrole-2-carbonyl) pyrrolidine-3-carboxamide]	10000 to 25000	< 45	induced capsids similar in size to NVR 3-778	50 to 300
Cc1cc(NC(=O)[C@H]2CCN(C(=O)c3ccc(-c4c(C)cn[nH]c4=O)[nH]3)[C@H]2C)ccc1F [Example 125, (2S,3S)—N-(4-fluoro-3-methylphenyl)-2-methyl-1-(5-(5-methyl-3-oxo-2,3-dihydropyridazin-4-yl)-1H-pyrrole-2-carbonyl)pyrrolidine-3-carboxamide]	> 25000	< 45	induced capsids similar in size to NVR 3-778	< 50
Cc1c(-c2ccc(C(=O)N3CC[C@H](C(=O)Nc4cc(F)c(F)c(F)c4)C3)[nH]2)ccc2[nH]ncc12 [Example 128, (S)-1-(5-(4-methyl-1H-indazol-5-yl)-1H-pyrrole-2-carbonyl)-N-(3,4,5-trifluorophenyl) pyrrolidine-3-carboxamide]	10000 to 25000	< 45	induced capsids similar in size to NVR 3-778	50 to 300
Cc1ncnc(C)c1-c1ccc2c(Cl)c(C(=O)N3CC[C@H](C(=O)Nc4ccc(F)c(C#N)c4)[C@@H]3C)[nH]c2c1 [Example 138, (2S,3S)-1-(3-chloro-6-(4,6-dimethylpyrimidin-5-yl)-1H-indole-2-carbonyl)-N-(3-cyano-4-fluorophenyl)-2-methylpyrrolidine-3-carboxamide]	10000 to 25000	< 45	capsid retention times between BAY 41-4109 and NVR 3-778	50 to 300
Cc1cc(NC(=O)[C@H]2CCN(C(=O)c3ccc(-c4cccnc4C#N)[nH]3)C2)ccc1F [Example 150, (S)-1-(5-(2-cyanopyridin-3-yl)-1H-pyrrole-2-carbonyl)-N-(4-fluoro-3-methylphenyl)pyrrolidine-3-carboxamide]	> 25000	< 45	induced capsids similar in size to NVR 3-778	50 to 300
